Reference: patent publication US11980687B2, “Liposomal compounds and methods of use thereof” (University of Kentucky Research Foundation, priority 2019, dated 2024)

Tests used:
heart = assay: Hemodynamic and ECG effects after retro-orbital administration; type: in vivo, mice; conditions: 40 mg/kg retro-orbital
Description: Mice were anaesthetized using 1%-3% isoflurane during Echocardiography to maintain heart rate of 450-500 BPM during imaging. A Vevo 3100 system coupled with a 15-7-MHz linear broadband transducer and a 12-5-MHz phased array transducer was used to perform Echocardiogram analyses. Heart function was examined at baseline (before cardiac surgery) then one-week and 4 weeks post-MI. During acquisition, a heating pad was used to preserve the body temperature at 37° C.; the temperature was continuously assessed by a rectal temperature probe. Using modified parasternal long-axis and short-axis, two-dimensional and Doppler echocardiography was used to assess the LV function and volume in M-mode. Tracings at the mid-papillary level to investigate the systolic and diastolic parameters and Teichholz formula were used to quantify LV function. Echocardiography imaging and analyses were carried out by a blinded investigator. Mice were anesthetized with 2% isoflurane, then placed on the ECG platform. Electrodes were inserted subcutaneously on the two front paws and the left rear paw followed by ECG recording for 2-3 minutes. Once the recording was completed, the data were analyzed using Chart software (PhysioTel).

macrophages [1] = assay: Flow cytometry of macrophage phenotypes in the injured heart; type: in vivo, mice; conditions: heart post-MI, relative to Lazm
Description: Phenotypic cell analysis of macrophages and neutrophils and gene expression analysis was conducted in the heart as previously described ([…] et al. 2018). Briefly, mice were sacrificed, and hearts were rapidly isolated and placed in ice cold PBS (VWR International). Using a razor blade, the heart was minced manually. After mincing, tissue was incubated with a Collagenase B (Roche, Indianapolis, IN) and Dispase II (Roche, Indianapolis, IN) mixture at 37° C. for 30 minutes, with gentle agitation every 5-10 minutes. Tissue digestion ceased using cold staining buffer and the suspension was placed on ice and filtered using a 70 μm cell strainer, followed by centrifugation at 400×g for 5 mins at 4° C. Supernatant was discarded and the pellet was resuspended in 0.3 ml of staining buffer. Individual heart cells were divided into approximately three equal portions depending on cell counting with 10^6 live (trypan blue-negative) cells in each. Two portions were used for cell staining while the remainder was incubated with cell lysis buffer (Life technologies) using multiple aggressive agitations, for 10 minutes and reserved at -80° C. for further gene expression analysis. […] Cells were then washed twice with staining buffer and analyzed by an LSR II (Becton Dickinson) in the University of Kentucky Flow Cytometry Core. […]

macrophages [2] = assay: Immunohistochemistry of macrophages in the peri-infarct zone; type: in vivo, mice
Description: Heart sections (N=4/treatment group) were prepared as described in the previous section. Immunostaining of heart sections was performed on deparaffinized and rehydrated sections as previously described (Al-Darraji, Haydar et al. 2018). Briefly, after deparaffinization and rehydration, sections were incubated with primary antibodies: rabbit anti-mouse IBA1 (Wako), goat anti-mouse CD206 (R and D Systems), and goat anti-mouse IL-1β (R & D Systems) overnight at 4° C., then washed and incubated with secondary antibodies conjugated to Alexa Fluor 488 or 594 (Invitrogen), followed by incubation with DAPI. In the peri-infarct area, 10-15 adjacent zones per section (1-2 sections/animal) were imaged at 40× magnification utilizing Nikon Confocal Microscope A1 in the University of Kentucky Confocal Microscopy facility. Nucleated cells that were antibody-positive were quantified using Cell Counter plugin for Nikon NIS-Elements (version AR 3.2). Findings are presented as total number of positive cells per high power field in the area of interest.

Ly6C^hi monocytes = assay: Flow cytometry of Ly6C^hi monocytes in heart and blood post-MI; type: in vivo, mice; conditions: first day after injury; effect disappears at later timepoints
Description: (§1) Cell phenotype, in addition to gene analyses, of monocytes and neutrophils were investigated in peripheral blood as previously described ([…] et al. 2018). Briefly, blood was collected in tubes with a 1:5 ratio of ethylene diaminetetraacetic acid (EDTA)/citrate-theophylline-adenosinedipyridamole (CTAD) on days 1, 3 and 7 post-MI. Whole blood was centrifuged for 5 minutes at 500×g, and the plasma layer was separated and reserved at -80° C. To lyse red blood cells, the residual cell pellet was incubated with 0.5 ml of diluted red blood lysing buffer (BD pharm lyse) for 10 minutes with mild agitation. To end the lysis process, 0.5 ml of staining buffer (5% goat serum, 0.05% sodium azide in phosphate-buffered saline) was added to the suspension of red blood cell lysed blood. Then, the suspension was centrifuged at 400×g for 5 minutes, and the supernatant was removed. This step was repeated if the red blood cells were still detectable in the cell pellet. White blood cell pellet was washed twice in staining buffer to remove any residual lysis buffer. After supernatant removal, the pellet was resuspended in a pre-determined volume of staining buffer and counted. […] Following incubation, cells were washed twice with staining buffer and analyzed by an LSR II (Becton Dickinson) in the University of Kentucky Flow Cytometry Core. […]

neutrophils = assay: Flow cytometry of neutrophils and N1 neutrophils in heart and blood post-MI; type: in vivo, mice; conditions: day 1 post-MI
Description: as §1

[3] = test system: pro- and anti-inflammatory cytokine expression; assay: RT-PCR of inflammatory and reparative gene expression in heart and blood cells post-MI; type: in vivo, mice
Description: PureLink RNA Mini Kit (ThermoFisher Scientific) was used to isolate total mRNA from heart and blood cells according to manufacturer protocol. Isolated RNA was quantified using NanoDrop 8000 spectrophotometer (Thermofisher). Next, cDNA was generated using SuperScript VILO cDNA synthesis kit (Invitrogen). Using a QuantaStudio 7 Flex real-time thermocycler (Applied Biosystems by life technology), Reverse Transcription-Polymerase Chain Reaction (RT-PCR) was performed to measure the mRNA expression of markers identifying: inducible nitric oxide synthase (iNOS), tumor necrosis factor alpha (TNF-α), monocyte chemotactic protein-1 (MCP-1), transforming growth factor beta (TGF-β), interleukin-1 beta (IL-1β), interleukin-6 (IL-6), interleukin-4 (IL-4), chitinase-like3 Chil3 (YM1), interleukin-10 (IL10), arginase-1 (ARG-1), and Peroxisome proliferator-activated receptor gamma (PPARg). We used the comparative Ct method for relative estimation of mRNA expression which was normalized to 18s (a housekeeping gene). […]

cardiac cells = assay: TUNEL and caspase-3 staining of apoptosis in the peri-infarct region; type: in vivo, mice; conditions: peri-infarct regions, 3 days post-MI, compared to vehicle control
Description: Cell apoptosis was examined on deparaffinized and rehydrated sections from mice (N=4/treatment group) sacrificed at day 3, as previously described ([…] et al. 2018). TUNEL and caspase-3 staining was performed in the Biospecimen Procurement and Translational Pathology Shared Resource Facility (BPTP SRF) at the University of Kentucky. Nucleated cells that stained positive were estimated. Quantification was performed using Cell Counter plugin for ImageJ (version 1.51d). Findings are presented as total positive cells per high power field in the peri-infract region. All measurements were obtained in the peri-infarcted areas only and analyzed by blinded observer.

infarcted heart = assay: Masson's trichrome scar size 30 days post-MI; type: in vivo, mice; conditions: compared to controls
Description: Histological analysis was performed on deparaffinized and rehydrated sections as previously described (Al-Darraji, Haydar et al. 2018). Briefly, 30 day post-MI mice (N=6-10/treatment group) were sacrificed under isoflurane anesthesia and hearts were isolated. Hearts were perfused with PBS (VWR International) then by 10% buffered formalin (VWR International) at 75 mmHg. Perfused hearts were placed in 10% neutral buffered formalin (VWR) overnight at room temperature, then sectioned into 2-mm cross-sections starting at the level of coronary ligation then imbedded in paraffin and sectioned into 4-μm sections. Sections were stained with Masson's trichrome to evaluate scar size as previously described (Al-Darraji, Haydar et al. 2018). Digital images of stained sections were acquired, and areas of interest were assessed using NIH ImageJ […] software. The LV area, LV cavity area, and infarct area were measured as previously described (Al-Darraji, Haydar et al. 2018). Scar size was presented as a percentage of the total LV […].

[4] = cited from earlier work
IL-1β = IL-1β (Homo sapiens, UniProt P01584); conditions: cited from earlier work

| Molecule | QT interval (heart) | RR (heart; compared with baseline) | cardiac output (heart; compared with baseline) | ejection fraction (heart; compared with baseline) | heart rate (heart; compared with baseline) | immunomodulatory changes of heart macrophages (FACS) (macrophages [1]) | reparative macrophages (CD206+) in peri-infarct zone (macrophages [2]; day 3 post-MI, compared to control groups) | expression of IL-1β in macrophages (IBA1+IL-1β+) (macrophages [2]; peri-infarct zones, 3 days post-MI, compared to controls) | Ly6C^hi (pro-inflammatory) monocytes in the heart (Ly6C^hi monocytes) | neutrophil counts in the heart (neutrophils) | expression of anti-inflammatory cytokines and reparative macrophage markers (TGF-β, IL-10, IL-4, ARG, Fizz1, PPARγ, YM1) in cardiac tissue ([3]; consistent effects up to day 7) | mRNA levels of iNOS and pro-inflammatory cytokines (MCP-1, TNF-α, IL-6, IL-1β) in cardiac tissue ([3]; particularly days 1 and 3 post-infarct) | TUNEL positive cells (late apoptosis) (cardiac cells) | caspase-3 positive cells (early apoptosis) (cardiac cells) | scar size (percentage of LV area) (infarcted heart) | mortality during drug administration (40 mg/kg IV, post-MI) | survival (35 days post-MI, vs vehicle-treated mice) | post-MI cardiac recovery ([4]; 160 mg/kg/day, orally, initiated 3 days pre-MI) | neutrophil counts ([4]; first study, mice receiving AZM) | cardiovascular events reoccurrence (IL-1β) |
| --- | --- | --- | --- | --- | --- | --- | --- | --- | --- | --- | --- | --- | --- | --- | --- | --- | --- | --- | --- | --- |
| CC[C@H]1OC(=O)[C@H](C)[C@@H](O[C@H]2C[C@@](C)(OC)[C@@H](O)[C@H](C)O2)[C@H](C)[C@@H](O[C@@H]2O[C@H](C)C[C@H](N(C)C)[C@H]2O)[C@](C)(O)C[C@@H](C)CN(C)[C@H](C)[C@@H](O)[C@]1(C)O [free AZM, azithromycin] | prolonged | remarkably reduces | remarkably reduces | remarkably reduces | remarkably reduces | Less powerful immunomodulatory changes | significant increase | marked reduction | significantly decrease in the first day after injury | did not see significant changes | significantly upregulated | substantially downregulated | remarkable reduction | remarkable reduction | significant reduction | occurs during the drug administration due to severe changes in cardiac conduction and hemodynamic parameters | marked improvement in survival | enhances post-MI cardiac recovery | substantially decreased |  |
| canakinumab: monoclonal antibody targeting IL-1β |  |  |  |  |  |  |  |  |  |  |  |  |  |  |  |  |  |  |  | significantly decreases cardiovascular events reoccurrence |
